For 29 compounds, IC50 results are on record in US9278981B2, “Compounds and compositions for inhibiting the activity of ABL1, ABL2 and BCR-ABL1” (Novartis AG, priority 2012, dated 2016).

The target in assay [1] is T1, ABL1 (64-515) (Homo sapiens (Human), UniProt P00519). Description: Radio ABL1 (64-515) assay (radiometric filter-binding). The assay is classed as biochemical.
Assay [2] deals with T1, ABL1 (64-515). Description: Caliper ABL1 (64-515) assay (microfluidic mobility shift). The format is biochemical.
Method: Expression and purification of human ABL was performed using standard expression purification procedures. […] The His-ABL was expressed in E. coli BL21 (DE3) and the ABL proteins were isolated by Ni-affinity on a Ni-NTA column (Qiagen). The His-tag was removed by PreScission protease (GE Healthcare) and the non-phosphoprylated ABL further purified on a Mono Q HR 10/10 (GE Healthcare, mono-phosphorylated ABL is about 10-20% of total ABL protein) and HiLoad 16/60 Superdex 200 size exclusion column (GE Healthcare).
All assays were performed in 384-well microtiter plates. Each assay plate contained 8-point serial dilutions for 40 test compounds, as well as four 8-point serial dilutions of staurosporine as a reference compound, plus 16 high and 16 low controls. Liquid handling and incubation steps were done on a Thermo CatX workstation equipped with Innovadyne Nanodrop Express. Between pipetting steps, tips were cleaned in wash cycles using wash buffer.
The assay plates were prepared by addition of 50 nL per well of compound solution in 90% DMSO. […] Plates with terminated kinase reactions were transferred to the Caliper LC3000 workstations for reading. Phosphorylated and unphosphorylated peptides were separated using the Caliper microfluidic mobility shift technology. Briefly, samples from terminated kinase reactions were applied to the chip. Analytes are transported through the chip by constant buffer flow and the migration of the substrate peptide is monitored by the fluorescence signal of its label. Phosphorylated peptide (product) and unphosphorylated peptide (substrate) are separated in an electric field by their charge/mass ratio. Kinase activities were calculated from the amounts of formed phospho-peptide. IC50 values were determined from percent inhibition values at different compound concentrations by non-linear regression analysis.
Test compounds were dissolved in DMSO (10 mM) and transferred into 1.4 mL flat bottom or V-shaped Matrix tubes carrying a unique 2D matrix. The stock solutions were stored at +2° C. if not used immediately. For the test procedure the vials were defrosted and identified by a scanner whereby a working sheet was generated that guided the subsequent working steps.
Compound dilutions were made in 96-well plates. This format enabled the assay of maximally 40 individual test compounds at 8 concentrations (single points) including 4 reference compounds. The dilution protocol included the production of “pre-dilution plates”, “master plates” and “assay plates”.
Polypropylene 96-well plates were used as pre-dilution plates. […] All dilution steps were done on a HamiltonSTAR robot.
These plates were used directly for the assay which was performed in a total volume of 9.05 μL.

T1 sequence (P00519 64-515): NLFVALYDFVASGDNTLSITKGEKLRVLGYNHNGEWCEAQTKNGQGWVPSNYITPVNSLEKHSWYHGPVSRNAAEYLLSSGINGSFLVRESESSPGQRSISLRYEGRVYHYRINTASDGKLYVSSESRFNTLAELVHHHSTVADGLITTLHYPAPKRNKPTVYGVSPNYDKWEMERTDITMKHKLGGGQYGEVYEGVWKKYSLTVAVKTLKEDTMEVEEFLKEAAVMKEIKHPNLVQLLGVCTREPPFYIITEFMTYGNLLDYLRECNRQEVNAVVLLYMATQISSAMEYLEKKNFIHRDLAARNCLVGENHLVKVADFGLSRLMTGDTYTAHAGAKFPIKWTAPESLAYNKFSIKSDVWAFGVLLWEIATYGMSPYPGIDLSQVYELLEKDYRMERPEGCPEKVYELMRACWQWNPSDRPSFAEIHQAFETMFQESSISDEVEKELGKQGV

As usually defined, the IC50 is the concentration that gives 50% inhibition. Regarding `O=C(Nc1ccc(OC(F)(F)F)cc1)c1cnc(N2C[C@H](CO)[C@@H](O)C2)c(-c2cncc(F)c2)c1` (relative stereo) [Example 92, 5′-Fluoro-2-(trans-3-hydroxy-4-(hydroxymethyl)pyrrolidin-1-yl)-N-(4-(trifluoromethoxy)phenyl)-[3,3′-bipyridine]-5-carboxamide], the IC50 on ABL1 (64-515) [1] is 6 nM; on ABL1 (64-515) [2] it was 0.7 nM.

In the case of `O=C(Nc1ccc(OC(F)(F)Cl)cc1)c1cnc(N2C[C@H](CO)[C@@H](O)C2)c(-c2cncnc2)c1` (relative stereo) [Example 250, N-(4-(Chlorodifluoromethoxy)phenyl)-6-(trans-3-hydroxy-4-(hydroxymethyl)pyrrolidin-1-yl)-5-(pyrimidin-5-yl)nicotinamide], the half-inhibitory concentration (IC50) on ABL1 (64-515) [1] was found to be 1 nM; on ABL1 (64-515) [2] it was 1.3 nM.

On to `CO[C@H]1CN(c2ncc(C(=O)Nc3ccc(OC(F)(F)F)cc3)cc2-c2cncc(F)c2)C[C@@H]1N` (relative stereo) [Example 286, 2-(trans-3-Amino-4-methoxypyrrolidin-1-yl)-5′-fluoro-N-(4-(trifluoromethoxy)phenyl)-[3,3′-bipyridine]-5-carboxamide], for which the values for the IC50 on ABL1 (64-515) [1] and at ABL1 (64-515) [2] were 2 nM and 1.7 nM, respectively.

Turning to `O=C(Nc1ccc(OC(F)(F)F)cc1)c1ccc(N2CC[C@@H](O)C2)c(-c2cccnc2)c1` [Example 5, (R)-4-(3-Hydroxypyrrolidin-1-yl)-3-(pyridin-3-yl)-N-(4-(trifluoromethoxy)phenyl)benzamide], the results for the IC50 at ABL1 (64-515) [1] and on ABL1 (64-515) [2] were under 3 nM and 2.7 nM, respectively.

In the case of `O=C(Nc1ccc(OC(F)(F)F)cc1)c1ccc(N2C[C@H](O)[C@@H](O)C2)c(-c2cncnc2)c1` [Example 7, 4-((3S,4S)-3,4-Dihydroxypyrrolidin-1-yl)-3-(pyrimidin-5-yl)-N-(4-(trifluoromethoxy)phenyl)benzamide], the IC50 on ABL1 (64-515) [1] was under 3 nM; on ABL1 (64-515) [2], 1.2 nM.

For `O=C(Nc1ccc(OC(F)(F)F)cc1)c1ccc(N2C[C@H](O)[C@@H](O)C2)c(-c2cccnc2)c1` [Example 8, 4-((3S,4S)-3,4-Dihydroxypyrrolidin-1-yl)-3-(pyridin-3-yl)-N-(4-(trifluoromethoxy)phenyl)benzamide], the figures for the IC50 at ABL1 (64-515) [1] and at ABL1 (64-515) [2] were 13 nM and 2.8 nM, respectively.

`Cc1ccc(-c2cc(C(=O)Nc3ccc(OC(F)(F)F)cc3)ccc2N2C[C@H](O)[C@@H](O)C2)cn1` [Example 9, 4-((3S,4S)-3,4-Dihydroxypyrrolidin-1-yl)-3-(6-methylpyridin-3-yl)-N-(4-(trifluoromethoxy)phenyl)benzamide]: the IC50 at ABL1 (64-515) [1] turned out to be 17 nM; at ABL1 (64-515) [2], 1.8 nM.

With `O=C(Nc1ccc(OC(F)(F)F)cc1)c1ccc(N2C[C@@H](O)[C@@H](O)C2)c(-c2cncnc2)c1` [Example 10, 4-(cis-3,4-Dihydroxypyrrolidin-1-yl)-3-(pyrimidin-5-yl)-N-(4-(trifluoromethoxy)phenyl)benzamide], the IC50 is 3 nM at ABL1 (64-515) [1] and 2.2 nM at ABL1 (64-515) [2].

On to `O=C(Nc1ccc(OC(F)(F)F)cc1)c1cnc(N2CC(O)C2)c(-c2cncnc2)c1` [Example 25], for which the IC50 at ABL1 (64-515) [1] is under 3 nM; at ABL1 (64-515) [2], 1.9 nM.

`Cc1ccc(-c2cc(C(=O)Nc3ccc(OC(F)(F)F)cc3)cnc2N2CC[C@H](O)C2)cn1` [Example 34, (S)-2-(3-Hydroxypyrrolidin-1-yl)-6′-methyl-N-(4-(trifluoromethoxy)phenyl)-[3,3′-bipyridine]-5-carboxamide]: the IC50 on ABL1 (64-515) [1] was under 3 nM; at ABL1 (64-515) [2], 0.8 nM.

`Nc1ncc(-c2cc(C(=O)Nc3ccc(OC(F)(F)F)cc3)cnc2N2CC[C@@H](O)C2)cn1` [Example 38, (R)-5-(2-Aminopyrimidin-5-yl)-6-(3-hydroxypyrrolidin-1-yl)-N-(4-(trifluoromethoxy)phenyl)nicotinamide]: the half-inhibitory concentration (IC50) at ABL1 (64-515) [1] turned out to be 4 nM; on ABL1 (64-515) [2] it was 1.4 nM.

With `O=C(Nc1ccc(OC(F)(F)F)cc1)c1cnc(N2CC[C@@H](O)C2)c(-c2cccnc2)c1` [Example 39, (R)-2-(3-Hydroxypyrrolidin-1-yl)-N-(4-(trifluoromethoxy)phenyl)-[3,3′-bipyridine]-5-carboxamide], the IC50 is under 3 nM on ABL1 (64-515) [1] and 0.6 nM at ABL1 (64-515) [2].

For `Cc1ccc(-c2cc(C(=O)Nc3ccc(OC(F)(F)F)cc3)cnc2N2CC[C@@H](O)C2)cn1` [Example 41, (R)-2-(3-Hydroxypyrrolidin-1-yl)-6′-methyl-N-(4-(trifluoromethoxy)phenyl)-[3,3′-bipyridine]-5-carboxamide], the IC50 is under 3 nM on ABL1 (64-515) [1] and 0.8 nM on ABL1 (64-515) [2].

Consider `O=C(Nc1ccc(OC(F)(F)F)cc1)c1cnc(N2CC[C@@H](O)C2)c(-c2ccc(CO)nc2)c1` [Example 42, (R)-6′-(Hydroxymethyl)-2-(3-hydroxypyrrolidin-1-yl)-N-(4-(trifluoromethoxy)phenyl)-[3,3′-bipyridine]-5-carboxamide], for which the half-inhibitory concentration (IC50) at ABL1 (64-515) [1] was under 3 nM; at ABL1 (64-515) [2] it was 0.8 nM.

Consider `O=C(Nc1ccc(OC(F)(F)F)cc1)c1cnc(N2CC[C@@H](O)C2)c(-c2cncc(F)c2)c1` [Example 45, (R)-5′-Fluoro-2-(3-hydroxypyrrolidin-1-yl)-N-(4-(trifluoromethoxy)phenyl)-[3,3′-bipyridine]-5-carboxamide], for which the values for the IC50 at ABL1 (64-515) [1] and at ABL1 (64-515) [2] were under 3 nM and 1.1 nM, respectively.

On to `O=C(Nc1ccc(OC(F)(F)F)cc1)c1cnc(N2CC[C@@H](O)C2)c(-c2ccc(F)nc2)c1` [Example 47, (R)-6′-Fluoro-2-(3-hydroxypyrrolidin-1-yl)-N-(4-(trifluoromethoxy)phenyl)-[3,3′-bipyridine]-5-carboxamide], for which the IC50 at ABL1 (64-515) [1] was found to be 3 nM; on ABL1 (64-515) [2] it was 1.2 nM.

As for `O=C(Nc1ccc(OC(F)(F)F)cc1)c1cnc(N2CC[C@@H](O)C2)c(-c2cnccc2F)c1` [Example 48, (R)-4′-Fluoro-2-(3-hydroxypyrrolidin-1-yl)-N-(4-(trifluoromethoxy)phenyl)-[3,3′-bipyridine]-5-carboxamide], the IC50 at ABL1 (64-515) [1] came out at 4.2 nM; at ABL1 (64-515) [2], 0.8 nM.

On to `O=C(Nc1ccc(OC(F)(F)F)cc1)c1cnc(N2CC[C@@H](O)C2)c(-c2cc(F)cnc2F)c1` [Example 49, (R)-2′,5′-Difluoro-2-(3-hydroxypyrrolidin-1-yl)-N-(4-(trifluoromethoxy)phenyl)-[3,3′-bipyridine]-5-carboxamide], for which the figures for the IC50 at ABL1 (64-515) [1] and on ABL1 (64-515) [2] were 5 nM and 3.5 nM, respectively.

Turning to `O=C(Nc1ccc(OC(F)(F)F)cc1)c1cnc(N2CC[C@@H](O)C2)c(-c2cncc(Cl)c2)c1` [Example 50, (R)-5′-Chloro-2-(3-hydroxypyrrolidin-1-yl)-N-(4-(trifluoromethoxy)phenyl)-[3,3′-bipyridine]-5-carboxamide], the IC50 at ABL1 (64-515) [1] amounted to 3 nM; on ABL1 (64-515) [2], 1.1 nM.

For `O=C(Nc1ccc(OC(F)(F)F)cc1)c1cnc(N2CC[C@@H](O)C2)c(-c2ccc(C(F)(F)F)nc2)c1` [Example 51, (R)-2-(3-Hydroxypyrrolidin-1-yl)-N-(4-(trifluoromethoxy)phenyl)-6′-(trifluoromethyl)-[3,3′-bipyridine]-5-carboxamide], the half-inhibitory concentration (IC50) is under 3 nM at ABL1 (64-515) [1] and 2.9 nM at ABL1 (64-515) [2].

With `O=C(Nc1ccc(OC(F)(F)F)cc1)c1cnc(N2CC[C@@H](O)C2)c(-c2cnc(Cl)c(F)c2)c1` [Example 53, (R)-6′-Chloro-5′-fluoro-2-(3-hydroxypyrrolidin-1-yl)-N-(4-(trifluoromethoxy)phenyl)-[3,3′-bipyridine]-5-carboxamide], the IC50 at ABL1 (64-515) [1] was under 3 nM; on ABL1 (64-515) [2], 0.4 nM.

For `N#Cc1cncc(-c2cc(C(=O)Nc3ccc(OC(F)(F)F)cc3)cnc2N2CC[C@@H](O)C2)c1` [Example 54, (R)-5′-Cyano-2-(3-hydroxypyrrolidin-1-yl)-N-(4-(trifluoromethoxy)phenyl)-[3,3′-bipyridine]-5-carboxamide], the concentration for half-maximal inhibition (IC50) at ABL1 (64-515) [1] is 5 nM; at ABL1 (64-515) [2], 0.9 nM.

Consider `O=C(Nc1ccc(OC(F)(F)F)cc1)c1cnc(N2CC[C@@H](O)C2)c(-c2cccc(F)c2)c1` [Example 58, (R)-5-(3-Fluorophenyl)-6-(3-hydroxypyrrolidin-1-yl)-N-(4-(trifluoromethoxy)phenyl)nicotinamide], for which the IC50 on ABL1 (64-515) [1] came to 4 nM; on ABL1 (64-515) [2], 0.6 nM.

As to `N#Cc1ncc(F)cc1-c1cc(C(=O)Nc2ccc(OC(F)(F)Cl)cc2)cnc1N1CC[C@@H](O)C1` [Example 292, (R)—N-(4-(Chlorodifluoromethoxy)phenyl)-2′-cyano-5′-fluoro-2-(3-hydroxypyrrolidin-1-yl)-[3,3′-bipyridine]-5-carboxamide], at ABL1 (64-515) [2], the IC50 is 0.5 nM.

Consider `N#Cc1cc(F)cc(-c2cc(C(=O)Nc3ccc(OC(F)(F)Cl)cc3)cnc2N2CC[C@@H](O)C2)c1` [Example 293, (R)—N-(4-(Chlorodifluoromethoxy)phenyl)-5-(3-cyano-5-fluorophenyl)-6-(3-hydroxypyrrolidin-1-yl)nicotinamide], for which, on ABL1 (64-515) [2], the IC50 came out at 0.7 nM.

As for `Cc1ccc(F)cc1-c1cc(C(=O)Nc2ccc(OC(F)(F)Cl)cc2)cnc1N1CC[C@@H](O)C1` [Example 294, (R)—N-(4-(Chlorodifluoromethoxy)phenyl)-5-(5-fluoro-2-methylphenyl)-6-(3-hydroxypyrrolidin-1-yl)nicotinamide], the IC50 on ABL1 (64-515) [2] stood at 3 nM.

Take `N#Cc1ccc(F)c(-c2cc(C(=O)Nc3ccc(OC(F)(F)Cl)cc3)cnc2N2CC[C@@H](O)C2)c1` [Example 295, (R)—N-(4-(Chlorodifluoromethoxy)phenyl)-5-(5-cyano-2-fluorophenyl)-6-(3-hydroxypyrrolidin-1-yl)nicotinamide]: the IC50 at ABL1 (64-515) [2] stood at 0.7 nM.

As to `Cc1ccc(F)cc1-c1cc(C(=O)Nc2ccc(OC(F)(F)Cl)cc2)cnc1N1C[C@H](O)[C@@H](O)C1` [Example 296, N-(4-(Chlorodifluoromethoxy)phenyl)-6-((3S,4S)-3,4-dihydroxypyrrolidin-1-yl)-5-(5-fluoro-2-methylphenyl)nicotinamide], the concentration for half-maximal inhibition (IC50) at ABL1 (64-515) [2] is 1 nM.

Take `COc1ncc(-c2cc(C(=O)Nc3ccc(OC(F)(F)Cl)cc3)cnc2N2CC[C@@H](O)C2)cc1C#N` [Example 299, (R)—N-(4-(Chlorodifluoromethoxy)phenyl)-5′-cyano-2-(3-hydroxypyrrolidin-1-yl)-6′-methoxy-[3,3′-bipyridine]-5-carboxamide]: on ABL1 (64-515) [2], the IC50 worked out at 0.3 nM.
